The subject of assay [1] is S. aureus ATCC 43300. The experiment in a line: Membrane permeability, PI staining by FACS. The settings on record: 2× MIC, 10^8 CFU/mL, 37 °C. Type of assay: cell-based, Staphylococcus aureus. Here is the method:
Figure 8 In vitro antimicrobial analysis of PN7. (A): Time-kill curve of PN7, Plectasin, and vancomycin against S. aureus ATCC. All experiments were performed in triplicate. (B): The PAE of 1×, 2× and 4× MIC of PN7 and vancomycin against S. aureus ATCC 43300 (the MIC values of PN7 and vancomycin against S. aureus ATCC 43300 were 8 μg/mL and 1μg/mL, respectively). All experiments were performed in triplicate. (C): The morphological influence of PN7 on S. aureus ATCC 43300 was observed by SEM. (D,E): The effects of PN7 (D) and Plectasin (E)) on membrane permeability were analyzed by FACS. The logarithmic phase S. aureus ATCC 43300 cells (10^8 CFU/mL) were incubated with or without 2× MIC peptide solutions at 37 °C at different times. All experiments were performed in triplicate. Ple stands for the Plectasin treatment group, Van stands for the vancomycin treatment group, and CK stands for the untreated group. TEXT PRINTED IN THE PICTURE: (D) PN7: 34.4% (2×; 90min); 31.2% (2×; 75min); 30.4% (2×; 60min); 19.2% (2×; 45min); 16.7% (2×; 30min); 1.94% (2×; 15min) | (E) Ple: 32.0% (2×; 90min); 27.4% (2×; 75min); 25.2% (2×; 60min); 12.8% (2×; 45min); 12.0% (2×; 30min); 2.11% (2×; 15min) DOUBTS OF THE COPYIST ABOUT THIS PICTURE: Panels D and E: the picture prints no measure for the percentages, only labels such as "2×PN7-90min: 34.4%" / Panels D and E: "CK: 0.54%" is the untreated control, not a substance, and was left out
The fluorescent dye propidium iodide (PI; Solarbio, Beijing, China) was used to detect the effect of PN7 on the membrane permeability of Staphylococcus aureus. The test method refers to the descriptions in previous studies.
On the technique in general: A flow cytometer gives signals particle by particle.

Assay [2] has as its system S. aureus ATCC 43300. The experiment in a line: Time-killing curves. In kind it is cell-based, Staphylococcus aureus. Here is the method: S. aureus ATCC 43300 was cultured to the logarithmic stage, MHB medium was used for adjusting the concentration of bacterial suspension, and PN7 (1×, 2× and 4× MIC), Plectasin (1×, 2× and 4× MIC) and 2× MIC vancomycin (the MIC was 1 μg/mL) were added into the suspensions containing 10^5 CFU/mL bacteria (after the count of viable bacteria detection, the initial inoculation amount was 5.15 Log10 CFU/mL), cultured at 37 °C and 250 rpm. A 100 CFU/mL is considered the detection limit. […] In contrast, the count was reduced by 1.6 Log10 CFU/mL after treatment with 2× MIC vancomycin, an approximately 66% population decrease of target pathogens compared with the PN7 treatment group at the same time point of the second hour. After 4 h, the colony number of the peptide treatment group was almost 0, while that of the vancomycin treatment group was 0 after 8 h, at 4 h later than the PN7 treatment. At 24 h, the number of colonies of only 1× MIC Plectasin treatment group rebounded, while no such phenomenon occurred in the other treatment groups.
S. aureus ATCC 43300 was cultured to the logarithmic stage. MHB medium adjusted the concentration of bacterial suspension, and PN7 (1×, 2× and 4× MIC) was added into the suspensions containing 10^5 CFU/mL bacteria, cultured at 37 °C and 250 rpm. 1×, 2×, 4× MIC Plectasin and 2× MIC vancomycin were used as positive controls, and the group treated without antibiotics was used as the blank controls. Then, 100 μL samples were taken at different time points and were continuously diluted and coated on MHA medium for colony counting. A 100 CFU/mL is considered the detection limit.

The test system of assay [3] is Staphylococcus aureus ATCC 43300. As to conditions: data cited from previous results; cited from earlier work. The text has this:
(§1) Table 6 Antibacterial spectrum (MIC). | column: MIC (μg/mL) / Plectasin

In assay [4] the test system is Escherichia coli CVCC 195. As to conditions: data cited from previous results; cited from earlier work.
Text: as §1

In another assay the test system is E. coli O157. As to conditions: data cited from previous results; cited from earlier work.
Text: as §1

The subject of the next assay is S. aureus E48. As to conditions: data cited from previous results; cited from earlier work.
Text: as §1

The test system of the next assay is P. aeruginosa CICC 21630. The settings on record: data cited from previous results; cited from earlier work.
Text: as §1

The test system of the next assay is S. aureus CVCC 546. The settings on record: data cited from previous results; cited from earlier work.
Text: as §1

The subject of the next assay is S. pullorum CVCC 1789. As to conditions: data cited from previous results; cited from earlier work.
Text: as §1

Assay [5] concerns Streptococcus. suis CVCC 606. The settings on record: data cited from previous results; cited from earlier work.
Text: as §1

Assay [6] has as its system Staphylococcus aureus ATCC 43300. In words: microbe, parasite or virus in culture. As to conditions: Staphylococcus aureus, ATCC43300; microtiter broth dilution, MHB, 10^5 CFUs/mL, 16–18 h at 37 °C; read-out: MIC. In kind it is cell-based. Here is the method: The experimental operation of the expression of the Plectasin variant in P. pastoris in well plates, shaking flasks, and 5 L level fermentation was performed as referenced in previous studies. Candidates were identified through three different levels of screening. Firstly, a large number of transformants were screened through well plates to induce expression and determined by the inhibition zone assay (against S. aureus ATCC 43300). Secondly, the transformants with obvious inhibition zones were sequenced to obtain protein sequence information, then induced expression at the shake level. The supernatant was collected and purified to obtain the target protein; the anti-Staphylococcus aureus activity of the protein was detected by a MIC assay. Finally, the codons of candidate sequences were optimized, the expression vector was reconstructed, the optimal transformers were obtained, and the high-density cultivation was performed in a 5 L fermenter. The final agent was determined by high protein yield and good activity (Figure 2).
The MIC value of PN7 against bacteria was determined by the microtiter broth dilution method. Briefly, bacteria grown to the exponential phase were diluted into MHB; subsequently, 90 μL of bacterial suspension (10^5 CFUs/mL) was mixed with 10 μL of different concentrations of PN7 in a sterilized 96-well microtiter plate (Nunc). MIC values were recorded after incubation for 16–18 h at 37 °C based on the lowest concentrations of peptides in which no visible bacterial growth was observed.
On the technique in general: Broth dilution looks for growth in wells or tubes with falling amounts of substance.

Assay [7] relates to S. aureus ATCC 43300. The experiment in a line: Post antibiotic effect (PAE). In kind it is cell-based, Staphylococcus aureus. As to conditions: triplicate. An excerpt:
The post-antibiotic effect reflects the inhibitory effect on the growth of pathogenic bacteria after short contact with drugs, which is related to the strength of the bactericidal activity of drugs. The test method of the PAE of PN7 against S. aureus ATCC 43300 refers to the descriptions in previous studies.

≈ marks a conversion by molar mass, not a printed value. Read-outs that look alike come from different tables or passages of the source. Marks after values point to notes of the source that are not given here.

For `CC[C@H](C)[C@@H]1NC(=O)[C@H](CO)NC(=O)[C@H](CCCCN)NC(=O)[C@@H]2CSSC[C@@H](C(=O)N[C@@H](Cc3ccc(O)cc3)C(=O)O)NC(=O)[C@H](CCCCN)NC(=O)[C@@H]3CSSC[C@H](NC(=O)[C@H](CCC(N)=O)NC(=O)[C@H](CCSC)NC(=O)[C@H](CC(=O)O)NC(=O)[C@H](CC(=O)O)NC(=O)[C@H](CCC(=O)O)NC(=O)[C@H](CC(=O)O)NC(=O)[C@H](Cc4c[nH]c5ccccc45)NC(=O)[C@@H]4CCCN4C(=O)CNC(=O)[C@H](CC(N)=O)NC(=O)[C@@H](NC(=O)CNC(=O)[C@H](Cc4ccccc4)NC(=O)CN)CSSC[C@H](NC(=O)[C@H](Cc4ccc(O)cc4)NC(=O)CNC(=O)CNC(=O)[C@H](CCCCN)NC(=O)[C@H](Cc4ccc(O)cc4)NC(=O)CNC(=O)[C@H](CCCCN)NC1=O)C(=O)N[C@@H](C)C(=O)N[C@@H](CCCCN)C(=O)NCC(=O)NCC(=O)N[C@@H](Cc1ccccc1)C(=O)N[C@@H](C(C)C)C(=O)N3)C(=O)N[C@@H](Cc1c[nH]cn1)C(=O)N[C@@H](CC(N)=O)C(=O)N[C@@H](Cc1c[nH]cn1)C(=O)N2` [Plectasin], the figures for the “PI-staining percentage of cells” value in the assay on S. aureus ATCC 43300 [1] (30 min), in the assay with S. aureus ATCC 43300 [1] (60 min) and in the assay with S. aureus ATCC 43300 [1] (90 min) were 12.0%, 25.2% and 32.0%, respectively. The “number of colonies at 24 h” value in the assay with S. aureus ATCC 43300 [2] (1× MIC, time-kill) is “rebounded”. Further, the MIC in assay [3] is 4 ^a μg/mL; in assay [4], >128 ^a μg/mL; in the assay on E. coli O157, >128 ^a μg/mL; in the assay with S. aureus E48, 4 ^a μg/mL; in the assay on P. aeruginosa CICC 21630, >128 ^a μg/mL; in the assay on S. aureus CVCC 546, 16 ^a μg/mL. Besides, the results for the MIC (in the assay on S. pullorum CVCC 1789; in assay [5]) were >128 ^a μg/mL and 1 ^a μg/mL, respectively.
Turning to `CN[C@H](CC(C)C)C(=O)N[C@H]1C(=O)N[C@@H](CC(N)=O)C(=O)N[C@H]2C(=O)N[C@H]3C(=O)N[C@H](C(=O)N[C@H](C(=O)O)c4cc(O)cc(O)c4-c4cc3ccc4O)[C@H](O)c3ccc(c(Cl)c3)Oc3cc2cc(c3O[C@@H]2O[C@H](CO)[C@@H](O)[C@H](O)[C@H]2O[C@H]2C[C@](C)(N)[C@H](O)[C@H](C)O2)Oc2ccc(cc2Cl)[C@H]1O` [vancomycin, reference compound], the “reduction of bacterial counts during the first two hours” value in the assay with S. aureus ATCC 43300 [2] (2× MIC, initial inoculum 5.15 Log10 CFU/mL, MHB, 37 °C, 250 rpm, triplicate) was 1.6 Log10 CFU/mL. Further, in the assay with S. aureus ATCC 43300 [2] (time-kill, 2× MIC), the “time to kill 99% of S. aureus ATCC 43300” value is 8 h. In addition, the “time after which the colony number was (almost) 0” value in the assay on S. aureus ATCC 43300 [2] (time-kill, detection limit 100 CFU/mL, vancomycin at 2× MIC) was 8 h. The MIC in [6] was determined as 1 mg/L (≈ 0.69 µM). The PAE is on record as 0.11 h with S. aureus ATCC 43300 [7] (1× MIC), 0.54 h with S. aureus ATCC 43300 [7] (2× MIC) and 0.78 h in the assay with S. aureus ATCC 43300 [7] (4× MIC).

The values above are taken from article PMC10451632, “Site Mutation Improves the Expression and Antimicrobial Properties of Fungal Defense” (Antibiotics, 2023).
